Biological target: GSK3β (Homo sapiens, UniProt P49841)
Experiment: Inhibitory activity against GSK3β (33P-ATP phosphorylation of prephosphorylated GS1 peptide)
Assay type: biochemical
Details: protocol 3: 7.5 μM GS1 peptide, 10 μM ATP, 50 mM Hepes pH 7.2, one hour at room temperature
Experimental: Four different protocols can be used.
In a first protocol: 7.5 μM of prephosphorylated GS1 peptide and 10 μM ATP (containing 300,000 cpm of ^33P-ATP) were incubated in 25 mM Tris-HCl, pH 7.5, 0.6 mM DTT, 6 mM MgCl2, 0.6 mM EGTA, 0.05 mg/ml BSA buffer for 1 hour at room temperature in the presence of GSK3beta (total reaction volume: 100 microliters).
In a second protocol: 4.1 μM of prephosphorylated GS1 peptide and 42 μM ATP (containing 260,000 cpm ^33P-ATP) were incubated in 80 mM Mes-NaOH, pH 6.5, 1 mM Mg acetate, 0.5 mM EGTA, 5 mM 2-mercaptoethanol, 0.02% Tween 20, 10% glycerol buffer for 2 hours at room temperature in the presence of GSK3beta.
In a third protocol: 7.5 μM of prephosphorylated GS1 peptide and 10 μM ATP (containing 300,000 cpm of ^33P-ATP) were incubated in 50 mM Hepes, pH 7.2, 1 mM DTT, 1 mM MgCl2, 1 mM EGTA, 0.01% Tween 20 buffer for one hour at room temperature in the presence of GSK3beta (total reaction volume: 100 microliters). […]
The reaction was stopped with 100 microliters of a solution made of 25 g polyphosphoric acid (85% P2O5), 126 ml 85% H3PO4, H2O to 500 ml and then diluted to 1:100 before use. […] Incorporated ^33P radioactivity was determined by liquid scintillation spectrometry. […]

Chain of GSK3β (P49841 whole entry): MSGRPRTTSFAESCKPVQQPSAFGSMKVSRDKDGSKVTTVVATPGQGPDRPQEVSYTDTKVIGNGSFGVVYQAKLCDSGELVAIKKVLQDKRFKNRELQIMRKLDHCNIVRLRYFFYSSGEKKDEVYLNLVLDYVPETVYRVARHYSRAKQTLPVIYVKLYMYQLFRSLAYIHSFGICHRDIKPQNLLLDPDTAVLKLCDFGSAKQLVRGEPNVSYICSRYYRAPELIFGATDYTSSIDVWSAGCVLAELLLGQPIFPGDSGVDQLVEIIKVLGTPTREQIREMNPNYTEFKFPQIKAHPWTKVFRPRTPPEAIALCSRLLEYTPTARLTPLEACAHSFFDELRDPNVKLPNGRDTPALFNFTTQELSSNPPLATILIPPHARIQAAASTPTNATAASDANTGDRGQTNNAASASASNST

IC50: 506 nM
SMILES: [O-][n+]1cc(NCC(O)c2ccccc2)nc(-c2ccncc2)c1 (racemic) [compound 2, (+/−)2-[(4-oxido-6-pyridin-4-ylpyrazin-2-yl)amino]-1-phenylethanol]

Source: US8202874B2, “Substituted N-oxide pyrazine derivatives” (Mitsubishi Tanabe Pharma Corporation, priority 2008, dated 2012)
